# What was measured:
# Format in all cases: in vivo
# [1] = tested on: Meloidogyne incognita; assay: Root infestation on agar plate: root knot count on potato microplant roots; conditions: 60 μM in agar, galls counted 5 weeks after inoculation, four replicates
# Summary of the method: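 Potato cv. Desirée microplants were grown 2-3 weeks on agar at 20 °C, and compound diffused in from DMSO for 2 days (60 μM in agar). Plates were then inoculated with ~400 axenic M. incognita juveniles. Root galls were counted 5 weeks later in the dark at 20 °C, with four replicates per compound and root toxicity noted.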
# [2] = tested on: Meloidogyne incognita nematodes; assay: Pot Assay 1: Meloidogyne infection of potato, egg masses/galls on roots; conditions: potato in pot, week 8 after inoculation
# Summary of the method: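 Potato (cv. Bintje) grown in sand pots at 14–18 °C in greenhouse. Compound in DMSO spread on sand one day before inoculation with ~1500 M. incognita juveniles; concentration assumes full diffusion in pot. Root galls counted 8 weeks post-inoculation, plant development also scored; triplicates, aldicarb and DMSO/untreated controls.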
# [3] = tested on: tomato (cv. Rio Grande); assay: Pot Assay 2: root development (vigor of roots) of tomato; conditions: RATE 0.05 mg; visual value 0 to 10 (10 equal to control)
# Method: Phytotoxicity of compounds as described herein when used as a nematicide, was measured as follows. […] At that moment, plant emergence was assessed for the plants treated with any of the compounds as described herein, by counting the number of plants per compound-concentration.
# Vigor of roots was also assessed once the plants are well established so as not to loose plants. To assess vigor of the plants or roots, a visual value ranging from 0 to 10 (0 no vigor, 10 equal to control) was scored per compound-concentration.
# [4] = tested on: sugar beet (variety GEA (KWS)); assay: Pot Assay 3: phytotoxicity, number of sugar beet plants emerged
# Method: Each compound or compound mixture as described herein was tested in 4 different rates with 4 replicates per rate. One pot per replicate was used in which 18 beava sugar beet seeds (variety GEA (KWS)) were sown. After crop germination, the number of plants was reduced to 10 plants. The 4 rates added to the soil of the tested compounds or compound mixtures were 0.05 mg, 0.20 mg, 1 mg and 5 mg. These amounts translate to field application rates respectively as 30, 120, 600 and 3000 g per hectare.
# Phytotoxicity assessments were carried by assessing any possible effects of the chemicals on the crop, such as chlorosis, yellowing, stunting, in comparison to the untreated control without nematodes.
# [5] = tested on: stubby root nematodes (Paratrichodorus), stunt nematodes (Tylenchorhynchus spp.), root lesion nematodes (Pratylenchus spp.) and root knot nematodes …; assay: Nematicide field trial on carrots: % deformed carrots
# Method: Garden carrots were grown in the open field. The soil contained high levels of stubby root nematodes (Paratrichodorus), stunt nematodes (Tylenchorhynchus spp.), root lesion nematodes (Pratylenchus spp.) and root knot nematodes (Meloidogyne spp.).
# An experimental pattern at Complete Randomized Blocks with four replicas was adopted. Besides the experimental products, each test also included an untreated control and a treatment with the standard commercial product VYDATE 10L (10%) applied in accordance to label instructions.
# In carrots, nematodes cause deformation such as stunting, dwarfing, twisting, splitting and bearding. For these experiments, the total percentage of deformed carrots were considered, as these are not marketed for human consumption and are of no commercial interest.
# Three different tests have been performed (Tables 9, 10 and 11), each containing an untreated and commercial reference control. All treatments were statistically different from untreated control.
compound,measurement,setting,value
CCCCc1c(C)nc(NCC)nc1OS(=O)(=O)N(C)C [XLIII],"Root knot count, average of the replicate counts",[1],8
same,"number of egg masses (galls) on roots, Replicate 3",[2]; 0.5 μM,30
same,"number of egg masses (galls) on roots, Replicate 2",[2]; 2 μM,35
same,"number of egg masses (galls) on roots, Replicate 3",[2]; 2 μM,25
same,"number of egg masses (galls) on roots, Replicate 1",[2]; 10 μM,15
same,"number of egg masses (galls) on roots, Replicate 2",[2]; 10 μM,5
same,"number of egg masses (galls) on roots, Replicate 3",[2]; 10 μM,10
same,"number of egg masses (galls) on roots, Replicate 1",[2]; 50 μM,0
same,"number of egg masses (galls) on roots, Replicate 2",[2]; 50 μM,15
same,"number of egg masses (galls) on roots, Replicate 3",[2]; 50 μM,5
same,ROOT DEV.,[3],7.8
same,# crops emerged (max 18),[4]; Rate 1 mg,18
same,# crops emerged (max 18),[4]; Rate 5 mg,18
same,% total deformed,"[5]; test of Table 9, Product Rate 500 g ai/ha",35.53%
same,% total deformed,"[5]; test of Table 9, Product Rate 1500 g ai/ha",41.34%
same,% total deformed,"[5]; test of Table 9, Product Rate 3000 g ai/ha",41.02%

# From patent publication US20090209605A1, “NEMATICIDAL COMPOSITIONS” (Devgen N.V., priority 2004, published 2009)
